SMILES strings stand for the structures.

The assay relates to heart of the chick embryo. In words: Relative stroke volume of the chick embryo heart by video microscopy (decrease by isoproterenol, rescue by metoprolol). In kind it is in vivo, chicken. Particulars: for % remaining stroke volume: 50 µL isoproterenol 1 mM topically, followed by 20 µL metoprolol 15 mM or water-dimethylsulfoxide mix (isoproterenol alone), after 2 minutes at 22°C; for reduction of the stroke volume: isoproterenol alone or applied with metoprolol. As to the method: Fertilized Bovans Goldline brown chicken eggs (12 hrs after laying, kept at 18°C) were incubated at 38°C and 45 % humidity during 72 hrs (Motorbruter 126-EM, Bruja). The eggshell was then broken and the egg white, the yolk and the embryo were removed and placed in a Petri dish (Greiner, 9.4 cm diameter). This Petri dish was placed in a bigger Petri dish (Greiner, 14 cm diameter) containing water and an incubation is performed at 38°C and 45 % humidity for 24 hrs or 48 hrs. The relative stroke volume of the heart of the chick embryo was then estimated by video microscopy using a binocular (SZX-ZB9, Olympus), a CCD camera (F-View, Soft Imaging Systems) and an image analysis software (AnalySIS Auto Software, Soft Imaging Systems). The beating heart of the embryo was filmed and the grey density of the heart area under systole was subtracted from the density of the heart area under diastole. By performing said subtraction, the so-called "relative stroke volume" is obtained, which represents a relative value instead of a volume.
50 µL of a isoproterenol (Sigma) solution (1mM, water) was then topically applied on the surface of the embryo, followed by 20 µL metoprolol (Sigma) solution (15 mM, Vol-90 % water, 10 % dimethylsulfoxide). Metoprolol is a marketed drug for human use against heart failure (M. Andrejak and M. Slama, Presse Med. 27:2025-30 (1998)). After 2 minutes at 22°C, the heart was monitored and the relative stroke volume was measured. The same experiment was performed by replacing the metoprolol solution by a water-dimethylsulfoxide mix (90 %-10 %) in order to investigate the effect of isoproterenol alone. Controls were performed with untreated embryos. The test groups of the 96 hrs old embryos (Table 1) comprise seven embryos each, while the test groups of the 120 hrs old embryos (Table 2) comprise five embryos each.

The mark [1] stands for this setting: 96 hrs old embryos, after 2 minutes.
Setting [2] is: 120 hrs old embryos, after 2 minutes incubation.

As to `COCCc1ccc(OCC(O)CNC(C)C)cc1` (centres unmarked) [metoprolol], the “% remaining stroke volume” value (96 hrs old embryos (n=7)) is given as 57,0% and the “% remaining stroke volume” value (120 hrs old embryos (n=5)) is listed as 58,8%. Further, the “reduction of the stroke volume” value is, setting by setting: under setting [1], 43%; under setting [2], 41%.

For the molecule `CC(C)NCC(O)c1ccc(O)c(O)c1` (centres unmarked) [Isoproterenol, isoproterenol], the “% remaining stroke volume” value was 25,5% (96 hrs old embryos (n=7)) and 27,2% (120 hrs old embryos (n=5)). The “reduction of the stroke volume” value reads like this: under setting [1], 75%; under setting [2], 72%.
